ChEMBL document CHEMBL4418308, “cGAS ANTAGONIST COMPOUNDS” (2017)
pIC50: −log10 of the molar value.

Molecular target: Cyclic GMP-AMP synthase (Homo sapiens, UniProt Q8N884)
Experiment: Inhibition of recombinant His6-SUMO tagged human CGAS expressed in Escherichia coli BL21/pLys cells incubated for 20 mins by Kinase Glo chemiluminescence assay

Cyclic GMP-AMP synthase, sequence (Q8N884 whole entry): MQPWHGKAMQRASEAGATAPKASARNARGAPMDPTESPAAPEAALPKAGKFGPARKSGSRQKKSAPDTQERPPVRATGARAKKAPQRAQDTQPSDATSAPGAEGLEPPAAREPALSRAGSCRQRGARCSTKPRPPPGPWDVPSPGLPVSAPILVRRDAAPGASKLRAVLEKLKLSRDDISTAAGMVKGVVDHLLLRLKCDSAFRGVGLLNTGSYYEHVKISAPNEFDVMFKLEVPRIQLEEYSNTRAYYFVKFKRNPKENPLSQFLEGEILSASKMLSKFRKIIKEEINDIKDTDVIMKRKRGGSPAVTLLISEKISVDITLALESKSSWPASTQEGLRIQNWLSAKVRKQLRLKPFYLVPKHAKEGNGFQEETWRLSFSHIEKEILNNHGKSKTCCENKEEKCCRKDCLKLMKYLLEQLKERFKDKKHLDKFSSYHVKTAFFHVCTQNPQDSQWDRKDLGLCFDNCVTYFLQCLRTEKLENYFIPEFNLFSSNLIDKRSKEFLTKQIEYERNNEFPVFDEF

Row | pIC50 | SMILES
1 | ≤ 5.00 | CN1C(=O)S/C(=C\c2cc(OCc3ccnc4ccccc34)c(O)cc2Br)C1=O
2 | ≤ 5.00 | CNc1ncc(C(C)Oc2cc(/C=C3\SC(=O)N(C)C3=O)c(Br)c(F)c2O)cn1 (stereo not drawn)
3 | 5.00 to 6.30 | O=C1NC(=O)/C(=C/c2ccncc2)N1
4 | ≤ 5.00 | COc1cc(/C=C2\SC(=O)N(C)C2=O)c(C#N)cc1O
5 | ≤ 5.00 | CN1CCC(COc2cc(/C=C3\SC(=O)N(C)C3=O)c(Br)cc2O)CC1
6 | ≥ 6.30 | Cc1ncc(COc2cc(/C=C3\Sc4ncccc4C3=O)c(Br)cc2O)c(C)n1
7 | ≥ 6.30 | Cc1ncc(COc2cc(/C=C3\SC(=O)N(C)C3=O)c(Br)cc2O)cn1
8 | ≤ 5.00 | COc1cc2c(cc1O)CC/C2=C1/SC(=O)N(C)C1=O
9 | ≤ 5.00 | CN1C(=O)S/C(=C\c2cc(OCc3cccc4cnccc34)c(O)cc2Br)C1=O
10 | ≤ 5.00 | COc1cc(/C=C2\SC(=O)N(C)C2=O)c(Br)cc1OCc1ccncc1
11 | ≤ 5.00 | CNc1ncc(C(C)Oc2cc(/C=C3\SC(=O)N(C)C3=O)c(Br)cc2O)cn1 (stereo not drawn)
12 | ≤ 5.00 | CN1C(=O)S/C(=C\c2cc(OCc3cnc(Nc4ccccc4)nc3)c(O)cc2Br)C1=O
13 | ≤ 5.00 | CN1C(=O)S/C(=C\c2cc3nn[nH]c3cc2Br)C1=O
14 | ≤ 5.00 | CN1C(=O)S/C(=C\c2cc(C(C)(F)F)c(O)cc2Br)C1=O
15 | ≤ 5.00 | CC(Oc1cc(/C=C2\SC(=O)N(C)C2=O)c(Br)cc1O)c1cnc(Cl)nc1 (stereo not drawn)
16 | ≥ 6.30 | O=C1NC(=O)/C(=C2\CCCc3cnccc32)S1

Row | pIC50 | SMILES
17 | ≤ 5.00 | CSc1ncc(COc2cc(/C=C3\SC(=O)N(C)C3=O)c(Br)cc2O)c(Cl)n1
18 | ≤ 5.00 | COc1cc(/C=C2\SC(=O)N(C)C2=O)c(Br)cc1NS(=O)(=O)c1ccc(C)cc1
19 | ≤ 5.00 | CC(C)C(=O)Nc1cncc(COc2cc(/C=C3\SC(=O)N(C)C3=O)c(Br)cc2O)c1
20 | ≥ 6.30 | CN1C(=O)S/C(=C\c2cc(OCc3cnc(Nc4ccncc4)nc3)c(O)cc2Br)C1=O
21 | ≤ 5.00 | O=C1NC(=O)/C(=C/c2c[nH]cn2)S1
22 | ≤ 5.00 | CN1C(=O)S/C(=C\c2cc(OCc3cnc(O)nc3)c(O)cc2Br)C1=O
23 | ≤ 5.00 | CN1C(=O)S/C(=C\c2cc(OC(F)(F)F)c(Oc3cnc(N)s3)cc2Br)C1=O
24 | ≤ 5.00 | CN1C(=O)S/C(=C\c2cc(OCc3cnc(N4CCCCC4)nc3)c(O)cc2Br)C1=O
25 | ≤ 5.00 | O=C1NC(=O)/C(=C/c2ccncc2C(F)(F)F)S1
26 | 5.00 to 6.30 | COc1cc(/C=C2\Sc3ncncc3C2=O)c(Br)cc1O
27 | ≤ 5.00 | CC(C)Nc1ncc(COc2cc(/C=C3\SC(=O)N(C)C3=O)c(Br)cc2O)cn1
28 | ≥ 6.30 | CN1C(=O)S/C(=C\c2cc(C(F)(F)F)c(O)cc2Br)C1=O
29 | ≥ 6.30 | Nc1ncc(COc2cc(/C=C3\Sc4ncccc4C3=O)c(Br)cc2O)c(C(F)(F)F)n1
30 | ≤ 5.00 | CN1C(=O)S/C(=C\c2cc(OCc3cn(-c4ccccc4)nn3)c(O)cc2Br)C1=O
31 | ≤ 5.00 | CC(C)c1cc(/C=C2\Sc3ncccc3C2=O)c(Br)cc1O
32 | ≤ 5.00 | CCC/N=C1/S/C(=C\c2cc(OC)c(O)cc2Br)C(=O)N1C

Row | SMILES | pIC50
33 | CN1C(=O)S/C(=C\c2cc(OCCc3ccncc3)c(O)cc2Br)C1=O | 5.00 to 6.30
34 | CN1C(=O)S/C(=C\c2cc(OCc3ccc(=O)[nH]c3)c(O)cc2Br)C1=O | 5.00 to 6.30
35 | CN1C(=O)S/C(=C\c2cc(Oc3cnc(N)s3)c(O)c(F)c2Br)C1=O | 5.00 to 6.30
36 | Cc1nc2c(Oc3cc(/C=C4\SC(=O)N(C)C4=O)c(Br)cc3O)cccc2o1 | 5.00 to 6.30
37 | CCC(Oc1cc(/C=C2\SC(=O)N(C)C2=O)c(Br)c(F)c1O)c1cnc(Cl)nc1 (stereo not drawn) | 5.00 to 6.30
38 | CC(Oc1cc(/C=C2\SC(=O)N(C)C2=O)c(Br)cc1O)c1cncnc1 (stereo not drawn) | 5.00 to 6.30
39 | COc1cc(/C=C2\SC(=O)N(C)C2=O)c(Br)cc1NS(=O)(=O)C(F)(F)F | 5.00 to 6.30
40 | CN1C(=O)S/C(=C\c2cc(CC(F)(F)F)c(O)cc2Br)C1=O | 5.00 to 6.30
41 | CN1C(=O)S/C(=C\c2cc(OCC3(c4cnc(N)nc4)CC3)c(O)c(F)c2Br)C1=O | 5.00 to 6.30
42 | COc1cc(/C=C2\SC(=O)N(C)C2=O)c(C)cc1O | 5.00 to 6.30
43 | CN1C(=O)S/C(=C\c2cc(OCc3ccnc(N)c3)c(O)cc2Br)C1=O | 5.00 to 6.30
